Among the data in patent US7087609B2, “3-(pyridinyl-piperazin-1-yl)-phenylethyl amides as potassium channel openers” (Bristol-Myers Squibb Company, priority 2002, dated 2006) are EC50 values, retold here.

Each structure is given as a SMILES string.

The assay concerns the target voltage-gated K+ channel KCNQ2 (Homo sapiens, UniProt O43526). The assay is described as follows: thallium flux assay to detect openers of KCNQ potassium channels. The note with it: thallium influx assay; 10 point concentration series, 1:3 dilutions; concentration yielding 50% of maximal response (opening). In kind it is cell-based. An excerpt: A thallium flux assay was used to detect and characterize openers of KCNQ potassium channels. The thallium assay is generally described in International application WO 02/31508 published Apr. 18, 2002. More specifically, the thallium influx assay to detect compounds that block or open the voltage-gated K^+ channel KCNQ2 is described in Example IV of the published WO 02/31508 application.
For data analysis, the amplitude of the average of the negative controls was subtracted from all wells. The amplitudes of the test compounds were then compared to the value of four standard deviations of the negative control wells. The lowest concentration of a test compound sufficient to generate a signal amplitude greater than or equal to four standard deviations from the amplitude of the negative controls was defined as the minimal active concentration.
For generating EC50 values, compounds were serially diluted in 1:3 volume increments to produce a 10 point concentration series. EC50 values were calculated by fitting the resulting amplitudes to a single-site logistic equation. EC50 was defined as the concentration of test compound required to yield 50% of the maximal response. Maximal response (Maximal opening) was the largest signal amplitude above the negative control generated by any concentration of a test compound.

voltage-gated K+ channel KCNQ2, sequence (O43526 whole entry): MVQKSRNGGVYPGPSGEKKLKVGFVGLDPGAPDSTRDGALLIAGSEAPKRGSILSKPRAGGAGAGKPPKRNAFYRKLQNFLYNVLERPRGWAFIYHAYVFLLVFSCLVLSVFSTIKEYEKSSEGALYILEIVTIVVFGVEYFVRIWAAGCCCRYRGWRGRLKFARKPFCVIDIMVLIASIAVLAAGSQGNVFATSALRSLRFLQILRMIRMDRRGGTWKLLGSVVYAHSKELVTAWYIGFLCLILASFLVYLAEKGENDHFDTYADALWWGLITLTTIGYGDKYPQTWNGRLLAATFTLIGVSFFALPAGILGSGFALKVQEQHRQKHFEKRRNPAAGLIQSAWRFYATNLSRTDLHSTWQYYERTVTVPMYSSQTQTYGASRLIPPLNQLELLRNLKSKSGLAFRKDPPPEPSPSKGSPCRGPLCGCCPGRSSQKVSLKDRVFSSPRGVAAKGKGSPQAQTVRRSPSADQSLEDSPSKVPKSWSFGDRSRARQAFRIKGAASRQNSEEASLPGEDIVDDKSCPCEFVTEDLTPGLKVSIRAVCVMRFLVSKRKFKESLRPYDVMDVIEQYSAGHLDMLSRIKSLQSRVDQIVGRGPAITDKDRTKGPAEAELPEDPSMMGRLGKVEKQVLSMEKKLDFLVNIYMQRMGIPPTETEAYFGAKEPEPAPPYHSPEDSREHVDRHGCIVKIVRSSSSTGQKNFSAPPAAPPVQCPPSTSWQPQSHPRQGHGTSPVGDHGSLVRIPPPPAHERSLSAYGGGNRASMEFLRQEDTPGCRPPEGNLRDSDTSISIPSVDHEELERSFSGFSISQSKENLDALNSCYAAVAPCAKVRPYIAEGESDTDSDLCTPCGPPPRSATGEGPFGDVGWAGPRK

As usually defined, the EC50 is the concentration that produces a half-maximal response. Low readings indicate an effect from little substance, high ones a need for much substance. Take `C[C@H](NC(=O)/C=C/c1ccc(F)cc1F)c1cccc(N2CCN(c3ccccn3)CC2)c1` [Example 11, (S)-3-(2,4-Difluoro-phenyl)-N-{1-[3-(4-pyridin-2-yl-piperazin-1-yl)-phenyl]-ethyl}-acrylamide]: the EC50 amounted to 1 nM.

Turning to `C[C@H](NC(=O)/C=C/c1cc(F)ccc1F)c1cccc(N2CCN(c3ccccn3)CC2)c1` [Example 12, (S)-3-(2,5-Difluoro-phenyl)-N-{1-[3-(4-pyridin-2-yl-piperazin-1-yl)-phenyl]-ethyl}-acrylamide], the EC50 amounted to 4 nM. Compound `C[C@H](NC(=O)/C=C/c1ccc(Cl)cc1F)c1cccc(N2CCN(c3ccccn3)CC2)c1` [Example 17, (S)-3-(4-Chloro-2-fluoro-phenyl)-N-{1-[3-(4-pyridin-2-yl-piperazin-1-yl)-phenyl]-ethyl}-acrylamide] returned an EC50 of 1 nM. Then `C[C@H](NC(=O)/C=C/c1cccc(F)c1F)c1cccc(N2CCN(c3ccccn3)CC2)c1` [Example 10, (S)-3-(2,3-Difluoro-phenyl)-N-{1-[3-(4-pyridin-2-yl-piperazin-1-yl)-phenyl]-ethyl}-acrylamide], with 1 nM; and `C[C@H](NC(=O)/C=C/c1ccccc1F)c1cccc(N2CCN(c3ccccn3)CC2)c1` [Example 3, (S)-3-(2-Fluoro-phenyl)-N-{1-[3-(4-pyridin-2-yl-piperazin-1-yl)-phenyl]-ethyl}-acrylamide], with 476 nM.

`C[C@H](NC(=O)/C=C/c1c(F)cccc1F)c1cccc(N2CCN(c3ccccn3)CC2)c1` [Example 13, (S)-3-(2,6-Difluoro-phenyl)-N-{1-[3-(4-pyridin-2-yl-piperazin-1-yl)-phenyl]-ethyl}-acrylamide]: it took 280 nM to reach a half-maximal effect (EC50).
